The values that follow are results of earlier work, collected in patent US20050182136A1, “N-acetylcysteine compositions and methods for the treatment and prevention of endothelial dysfunction” (priority 2004, published 2005).

Molecules are shown by their SMILES.

For data set [1] the following is noted: animal experiments, daily NAC dose of 150 mg/kg, over no treatment.
The conditions of data set [2]: oral NAC, intravenous contrast agents.
The conditions of data set [3]: patients with end-stage renal failure, 600 mg twice a day.
The conditions of data set [4]: relative to NAC.

With `CC(=O)N[C@@H](CS)C(=O)O` [NAC, N-acetylcysteine], in data set [1], the cysteine levels result was “substantially increase” and the glutathione levels result was “substantially increase”. Moreover, the “increase of serum creatinine after the administration of the contrast agent” value in data set [2] is “significant reduction”. In addition, the “various adverse cardiovascular events” value in data set [3] is given as “significantly reduced”.

Take `CC(=O)N[C@@H](CSSC[C@H](NC(C)=O)C(=O)O)C(=O)O` [oxidized form of NAC, di-N-acetylcysteine]: the “bioactive at doses less than NAC” value in data set [4] is recorded as 10-100 fold.
